According to ChEMBL document CHEMBL1201862, “PubChem BioAssay data set” (2004):
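These data come from cells grown in 96-well plates and exposed to compound for 48 hours at five concentrations. GI50 marks 50% less growth.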 The source made the active and inactive calls. Rule as the data show it: active = GI50 up to about 1.1 µM and inactive = higher.

Legend:
Experiment in all cases: NCI tumour cell line growth inhibition, 48 h
[1] = tested on: A549
[2] = tested on: OVCAR-4
[3] = tested on: MDA-MB-435
[4] = tested on: EKVX
[5] = tested on: OVCAR-5
[6] = tested on: SW-620
[7] = tested on: 786-0
[8] = tested on: HL-60
[9] = tested on: Malme-3M
[10] = tested on: SN12C
[11] = tested on: UACC-62
[12] = tested on: SK-MEL-2
[13] = tested on: NCI/ADR-RES
[14] = tested on: DU-145
[15] = tested on: A498
[16] = tested on: HOP-92
[17] = tested on: MCF7
[18] = tested on: RPMI-8226
[19] = tested on: Hs-578T

Measured: GI50

COC(=O)C1=C(O)C(C(=O)OC)[C@]2(O)[C@@H](C(=O)OC)[C@H]1[C@H](C)[C@@H](c1ccccc1)[C@@H]2C(=O)OC (stereo not given in full)
inactive: [1] 56.4 µM | [2] 80 µM | [3] 46.1 µM | [4] 55.7 µM | [5] > 100 µM | [6] 44.3 µM | [7] 62.2 µM | [8] 26.4 µM | [9] 42.2 µM | [10] 66.4 µM | [11] 65.5 µM | [12] 96.4 µM | [13] 40.7 µM | [14] > 100 µM

COc1c2occc2cc2ccc(=O)oc12 [METHOXSALEN]
inactive: [1] > 100 µM | [2] > 100 µM | [3] > 100 µM | [5] > 100 µM | [15] > 100 µM | [6] > 100 µM | [7] > 100 µM | [8] 90.2 µM | [16] > 100 µM | [10] > 100 µM | [17] > 100 µM | [11] 34.9 µM | [12] > 100 µM | [18] > 100 µM | [14] > 100 µM

COc1ccc(C(CC(=O)c2ccccc2)C(=O)c2ccc3c(c2)OCO3)cc1 (stereo not given)
inactive: [1] > 100 µM | [2] > 10 µM | [3] > 100 µM | [4] > 100 µM | [15] > 100 µM | [6] > 100 µM | [7] > 100 µM | [8] > 100 µM | [9] 79.3 µM | [10] > 100 µM | [17] > 100 µM | [11] > 100 µM | [12] > 100 µM | [13] > 100 µM | [18] > 100 µM | [14] > 100 µM

CC12C=CC(C)(C3C(=O)C4C(C(=O)C31)C1(C)C=CC4(C)[S+]1[O-])[S+]2[O-] (stereo not given)
inactive: [1] > 100 µM | [4] > 100 µM | [5] > 100 µM | [7] 51.2 µM | [9] 83.4 µM | [11] 74 µM | [13] 64.7 µM | [19] > 100 µM | [14] > 100 µM

O=c1c2cc(Br)ccc2oc2ccc(Br)cc12
inactive: [1] > 100 µM | [2] 46.3 µM | [3] > 100 µM | [5] > 100 µM | [15] > 100 µM | [6] > 100 µM | [7] 64.7 µM | [8] > 100 µM | [9] > 100 µM | [16] > 100 µM | [10] > 100 µM | [17] 27.5 µM | [11] > 100 µM | [12] > 100 µM | [13] > 100 µM | [18] > 100 µM | [14] 84.1 µM

O=C(/C=C/c1ccc(O)c(O)c1)OCCc1cccc2ccccc12
inactive: [1] 4.54 µM | [2] 10.7 µM | [3] 2.02 µM | [5] 14.4 µM | [15] 11.5 µM | [6] 5.07 µM | [7] 3 µM | [8] 1.38 µM | [9] 6.5 µM | [16] 10.6 µM | [10] 2.56 µM | [17] 7.31 µM | [11] 4.27 µM | [12] 3.44 µM | [13] 6.15 µM | [18] 2.3 µM | [14] 5.48 µM

CN1C(=O)c2ccccc2C(O)(c2ccccc2)C1(O)c1ccccc1 (stereo not given)
inactive: [1] 69.5 µM | [2] 72.8 µM | [3] > 100 µM | [4] 81.5 µM | [5] > 100 µM | [15] > 100 µM | [6] > 100 µM | [7] > 100 µM | [9] > 100 µM | [16] 14.4 µM | [10] > 100 µM | [11] 64.4 µM | [12] > 100 µM | [13] > 100 µM | [18] 56.4 µM | [19] 29.2 µM

O=C1NC2(CCN(CCCC3(c4ccc(F)cc4)OCCO3)CC2)Oc2ccccc21
inactive: [1] > 100 µM | [2] > 100 µM | [3] > 100 µM | [4] 39.4 µM | [5] > 100 µM | [15] 21.3 µM | [6] > 100 µM | [7] > 100 µM | [8] 42.7 µM | [9] > 100 µM | [16] 23.7 µM | [10] > 100 µM | [17] 86.7 µM | [11] > 100 µM | [13] 97.9 µM | [18] 61 µM | [14] > 100 µM

Cc1ccc(-n2c(C)n[nH]c2=O)cc1
inactive: [1] > 100 µM | [3] > 100 µM | [4] > 100 µM | [5] > 100 µM | [6] > 100 µM | [7] > 100 µM | [16] > 100 µM | [10] > 100 µM | [17] > 100 µM | [11] > 100 µM | [12] > 100 µM | [13] > 100 µM | [18] > 100 µM | [14] > 100 µM
